# In patent US10206937B2, “Boronic acid derivatives and therapeutic uses thereof” (Qpex Biopharma, Inc., priority 2014, dated 2019):
# System: strains of Enterobacteriaceae producing various carbapenemases (class A, D and B; 169 strains)
# Experiment: Meropenem or tebipenem potentiation by Compounds 97 or 62 (MIC)
# Assay type: cell-based
# Method: The largest panel of clinical isolates expressing class A, D and B carbapenemases alone or in combination with other beta-lactamases (169 strains) was used to evaluate carbapenem potentiation activity of Compounds 97 and 62. MIC for meropenem and tebipenem of these strains were determined either alone or in the presence of Compounds 97 or 62, respectively, at a fixed concentration of 8 μg/ml in the growth media.
compound,measurement,setting,value
C[C@@H](O)[C@H]1C(=O)N2C(C(=O)O)=C(S[C@@H]3CN[C@H](C(=O)N(C)C)C3)[C@H](C)[C@H]12 [M],Meropenem MIC alone (M),"KP1182 Klebsiella pneumoniae SHV-OSBL(2b), NDM-1, OXA-232(c)",Z (MIC of greater than 10 μg/mL)
same,Meropenem MIC alone (M),"KP1183 Klebsiella pneumoniae SHV-OSBL(2b), TEM-OSBL(2b), CTX-M-15, NDM-1",Z (MIC of greater than 10 μg/mL)
same,Meropenem MIC alone (M),"KP1184 Klebsiella pneumoniae SHV-OSBL(2b), IMP-1",Y (MIC of 1 μg/mL to 10 μg/mL)
same,Meropenem MIC alone (M),"KP1185 Klebsiella pneumoniae SHV-OSBL(2b), TEM-OSBL(2b), IMP-4",Z (MIC of greater than 10 μg/mL)
same,Meropenem MIC alone (M),"KP1186 Klebsiella pneumoniae CTX-M-15, NDM-1",Z (MIC of greater than 10 μg/mL)
same,Meropenem MIC alone (M),"KP1187 Klebsiella pneumoniae SHV-55(2be), TEM-OSBL(2b), CTX-M-15, NDM-1",Z (MIC of greater than 10 μg/mL)
same,Meropenem MIC alone (M),"KP1188 Klebsiella pneumoniae SHV-OSBL(2b), CTX-M-15, NDM-1",Y (MIC of 1 μg/mL to 10 μg/mL)
same,Meropenem MIC alone (M),"KP1189 Klebsiella pneumoniae TEM-OSBL(2b), CTX-M-15, CTX-M-27, NDM-1",Z (MIC of greater than 10 μg/mL)
same,Meropenem MIC alone (M),KP1190 Klebsiella pneumoniae KPC-4 VIM-4 TEM SHV,Z (MIC of greater than 10 μg/mL)
same,Meropenem MIC alone (M),KP1191 Klebsiella pneumoniae KPC-2,Z (MIC of greater than 10 μg/mL)
same,Meropenem MIC alone (M),KP1192 Klebsiella pneumoniae KPC-2 TEM SHV,Z (MIC of greater than 10 μg/mL)
same,Meropenem MIC alone (M),KP1193 Klebsiella pneumoniae KPC-3 TEM SHV,Z (MIC of greater than 10 μg/mL)
same,Meropenem MIC alone (M),KP1194 Klebsiella pneumoniae KPC TEM SHV,Z (MIC of greater than 10 μg/mL)
same,Meropenem MIC alone (M),KP1195 Klebsiella pneumoniae KPC TEM CTX-M-15,Z (MIC of greater than 10 μg/mL)
same,Meropenem MIC alone (M),KP1196 Klebsiella pneumoniae KPC TEM SHV CTX-M-15 CMY,Z (MIC of greater than 10 μg/mL)
same,Meropenem MIC alone (M),"KP1197 Klebsiella pneumoniae KPC-3, VIM-1 TEM SHV",Z (MIC of greater than 10 μg/mL)
same,Meropenem MIC alone (M),"KP1198 Klebsiella pneumoniae KPC-3, VIM-1 TEM SHV",Z (MIC of greater than 10 μg/mL)
same,Meropenem MIC alone (M),KP1199 Klebsiella pneumoniae KPC-3 TEM SHV,Z (MIC of greater than 10 μg/mL)
same,Meropenem MIC alone (M),KP1200 Klebsiella pneumoniae KPC-3 TEM SHV,Z (MIC of greater than 10 μg/mL)
same,Meropenem MIC alone (M),KP1210 Klebsiella pneumoniae KPC SHV TEM,Z (MIC of greater than 10 μg/mL)
same,Meropenem MIC alone (M),KP1211 Klebsiella pneumoniae KPC SHV TEM CTX-M-15,Z (MIC of greater than 10 μg/mL)
same,Meropenem MIC alone (M),KP1212 Klebsiella pneumoniae KPC SHV TEM CTX-M-15,Z (MIC of greater than 10 μg/mL)
same,Meropenem MIC alone (M),KP1213 Klebsiella pneumoniae KPC SHV TEM CTX-M-15,Z (MIC of greater than 10 μg/mL)
same,Meropenem MIC alone (M),KP1214 Klebsiella pneumoniae KPC SHV TEM + 1.9 kb,Z (MIC of greater than 10 μg/mL)
same,Meropenem MIC alone (M),KP1215 Klebsiella pneumoniae KPC SHV,Z (MIC of greater than 10 μg/mL)
same,Meropenem MIC alone (M),KP1216 Klebsiella pneumoniae KPC SHV TEM + 1.9 kb,Z (MIC of greater than 10 μg/mL)
same,Meropenem MIC alone (M),KP1217 Klebsiella pneumoniae KPC SHV TEM + 1.9 kb,Z (MIC of greater than 10 μg/mL)
same,Meropenem MIC alone (M),KP1218 Klebsiella pneumoniae KPC SHV TEM + 1.9 kb,Z (MIC of greater than 10 μg/mL)
same,Meropenem MIC alone (M),KP1219 Klebsiella pneumoniae KPC SHV TEM + 1.9 kb,Z (MIC of greater than 10 μg/mL)
same,Meropenem MIC alone (M),KP1220 Klebsiella pneumoniae KPC SHV TEM + 1.9 kb,Z (MIC of greater than 10 μg/mL)
same,Meropenem MIC alone (M),KP1221 Klebsiella pneumoniae KPC SHV TEM + 1.9 kb,Z (MIC of greater than 10 μg/mL)
same,Meropenem MIC alone (M),KP1222 Klebsiella pneumoniae KPC SHV TEM IMP,Z (MIC of greater than 10 μg/mL)
same,Meropenem MIC alone (M),KP1223 Klebsiella pneumoniae KPC SHV TEM,Z (MIC of greater than 10 μg/mL)
same,Meropenem MIC alone (M),KP1224 Klebsiella pneumoniae KPC SHV TEM,Z (MIC of greater than 10 μg/mL)
same,Meropenem MIC alone (M),KP1225 Klebsiella pneumoniae KPC SHV TEM + 1.9 kb CMY,Z (MIC of greater than 10 μg/mL)
same,Meropenem MIC alone (M),KP1226 Klebsiella pneumoniae KPC SHV TEM + 1.9 kb,Z (MIC of greater than 10 μg/mL)
same,Meropenem MIC alone (M),KP1227 Klebsiella pneumoniae KPC SHV TEM CTX-M-15,Z (MIC of greater than 10 μg/mL)
same,Meropenem MIC alone (M),KP1228 Klebsiella pneumoniae OXA-48 TEM SHV CTX-M-15,Y (MIC of 1 μg/mL to 10 μg/mL)
same,Meropenem MIC alone (M),KP1229 Klebsiella pneumoniae OXA-48 TEM SHV CTX-M-15,Z (MIC of greater than 10 μg/mL)
same,Meropenem MIC alone (M),KP1230 Klebsiella pneumoniae OXA-48 TEM SHV CTX-M-15,Y (MIC of 1 μg/mL to 10 μg/mL)
same,Meropenem MIC alone (M),KP1231 Klebsiella pneumoniae OXA-48 TEM SHV CTX-M-15,Y (MIC of 1 μg/mL to 10 μg/mL)
same,Meropenem MIC alone (M),KP1232 Klebsiella pneumoniae OXA-48 TEM SHV CTX-M-15,Z (MIC of greater than 10 μg/mL)
same,Meropenem MIC alone (M),KP1234 Klebsiella pneumoniae OXA-48 TEM SHV CTX-M-15,Z (MIC of greater than 10 μg/mL)
same,Meropenem MIC alone (M),KP1236 Klebsiella pneumoniae OXA-48 TEM SHV CTX-M-15,Z (MIC of greater than 10 μg/mL)
same,Meropenem MIC alone (M),"PM1024 Proteus mirabilis TEM-1(2b), CMY-16, VIM-1",Z (MIC of greater than 10 μg/mL)
same,Meropenem MIC alone (M),"PM1025 Proteus mirabilis SHV-5(2be), TEM-OSBL(2b), VEB-2, VIM-1",Y (MIC of 1 μg/mL to 10 μg/mL)
same,Meropenem MIC alone (M),"PM1026 Proteus mirabilis DHA-1, IMP-26",Z (MIC of greater than 10 μg/mL)
same,Meropenem MIC alone (M),PM1027 Proteus mirabilis VIM-5,Z (MIC of greater than 10 μg/mL)
same,Meropenem MIC alone (M),SM1023 Serratia marcescens VIM-4,Z (MIC of greater than 10 μg/mL)
same,Meropenem MIC alone (M),"SM1024 Serratia marcescens TEM-1(2b), IMP-47",Y (MIC of 1 μg/mL to 10 μg/mL)
